Entries after “also recorded” stand apart in the source; their conditions may differ.
What was measured:
[1] = tested on: MEF PARP-1 KO−/− cells; assay: Cell viability assay in MEF PARP-1 KO−/− cells; assay type: cell-based, mouse; details: for EC50: Mus musculus, read-out: PARP-1−/− EC50; for cell death, in words: MEF PARP-1 KO−/−
[2] = tested on: OVCAR8 (BRCA1-methylated) cell line; assay: Cytotoxicity screen in OVCAR8 cells at 10 μM; assay type: cell-based
[3] = tested on: MEF WT cells; assay: Cell viability assay in MEF WT cells; assay type: cell-based, mouse; details: for EC50: Mus musculus, read-out: WT EC50; for cell death, in words: MEF WT
[4] = tested on: γH2AX foci in OVCAR8 cells; assay: Immunofluorescent cell microscopy of γH2AX foci; assay type: cell-based; details: 0.01-10 μM, 24 hrs
[5] = tested on: poly(ADP-ribose) (PAR), biochemical product of PARP-1; assay: Western blot analysis of PAR expression in OVCAR8 cells; assay type: cell-based; details: OVCAR8 cells treated 6 h
[6] = biological target: PARP-1 (Homo sapiens, UniProt P09874); assay: PARP-1 radioligand binding; details: 10c vs 10a; 15b vs 15a
PARP-1, sequence (P09874 whole entry): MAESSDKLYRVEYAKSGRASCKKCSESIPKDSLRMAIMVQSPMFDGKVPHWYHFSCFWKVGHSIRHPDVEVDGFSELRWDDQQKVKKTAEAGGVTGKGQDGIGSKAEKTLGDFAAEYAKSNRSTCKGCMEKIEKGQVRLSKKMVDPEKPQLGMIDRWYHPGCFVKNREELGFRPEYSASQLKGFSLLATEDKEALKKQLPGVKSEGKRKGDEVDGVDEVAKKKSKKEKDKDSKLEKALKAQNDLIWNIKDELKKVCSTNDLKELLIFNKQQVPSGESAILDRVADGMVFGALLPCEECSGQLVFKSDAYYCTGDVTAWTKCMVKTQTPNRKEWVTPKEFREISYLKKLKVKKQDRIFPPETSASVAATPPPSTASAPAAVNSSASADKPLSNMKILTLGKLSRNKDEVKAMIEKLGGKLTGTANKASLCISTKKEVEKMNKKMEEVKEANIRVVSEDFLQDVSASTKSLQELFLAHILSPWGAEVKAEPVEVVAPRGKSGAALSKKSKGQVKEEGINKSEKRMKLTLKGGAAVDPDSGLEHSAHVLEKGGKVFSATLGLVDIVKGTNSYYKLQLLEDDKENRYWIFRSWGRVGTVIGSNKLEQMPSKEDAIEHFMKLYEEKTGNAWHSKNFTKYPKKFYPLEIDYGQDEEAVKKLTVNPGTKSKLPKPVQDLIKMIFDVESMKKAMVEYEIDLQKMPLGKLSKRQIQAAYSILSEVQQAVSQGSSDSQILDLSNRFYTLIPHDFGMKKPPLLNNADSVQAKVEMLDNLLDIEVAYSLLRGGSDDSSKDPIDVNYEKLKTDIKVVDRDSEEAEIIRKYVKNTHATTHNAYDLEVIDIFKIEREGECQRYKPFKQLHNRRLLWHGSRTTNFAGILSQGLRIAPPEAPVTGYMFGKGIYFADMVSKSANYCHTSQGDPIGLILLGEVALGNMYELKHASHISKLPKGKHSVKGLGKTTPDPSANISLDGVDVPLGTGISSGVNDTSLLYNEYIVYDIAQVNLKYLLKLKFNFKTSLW

[7] = tested on: MEF PARP-2 KO−/− cells; assay: Cell viability assay in MEF PARP-2 KO−/− cells; assay type: cell-based; details: Mus musculus, read-out: PARP-2−/− EC50
[8] = tested on: other PARPs; assay: PARPs enzyme inhibition panel at 10 μM; assay type: biochemical
[9] = tested on: UWB1.289 cells; assay: Cell viability assay in UWB1.289; assay type: cell-based; details: UWB1.289 isogenic cell lines

O=C(c1cc(Cc2n[nH]c(=O)c3ccccc23)ccc1F)N1CCC12CCC2 [Compound 11a, 4-(4-Fluoro-3-(1-azaspiro[3.3]heptane-1-carbonyl)benzyl)phthalazin-1(2H)-one]
EC50 [1]: > 100 µM

O=C(c1cc(Cc2n[nH]c(=O)c3ccccc23)ccc1F)N1CC2(CCC2)C1 [Compound 10a, 4-(4-Fluoro-3-(2-azaspiro[3.3]heptane-2-carbonyl)benzyl)phthalazin-1(2H)-one]
cytotoxicity / anti-proliferative activity (in words) [2]: poor cytotoxic properties
EC50 [1]: > 100 µM

O=C(c1cc(Cc2n[nH]c(=O)c3ccccc23)ccc1F)N1CCC2(CCCC2)C1 [Compound 15a, 4-(4-Fluoro-3-(2-azaspiro[4.4]nonane-2-carbonyl)benzyl)phthalazin-1(2H)-one]
EC50 [1]: > 100 µM

O=C(c1cc(Cc2n[nH]c(=O)c3ccccc23)ccc1F)N1CCC2(CCN(C(=O)C3CC3)C2)C1 (centres unmarked) [Compound 15d, 4-(3-(7-(Cyclopropanecarbonyl)-2,7-dizaspiro[4.4]nonane-2-carbonyl)-4-fluorobenzyl)phthalazin-1(2H)-one]
EC50 [1]: > 100 µM
EC50 [3]: > 100 µM

O=C(c1cc(Cc2n[nH]c(=O)c3ccccc23)ccc1F)N1CCC2(CCNCC2)CC1 [Compound 17c, 4-(4-Fluoro-3-(3,9-diazaspiro[5.5]undecane-3-carbonyl)benzyl)phthalazin-1(2H)-one]
EC50 [1]: > 100 µM
EC50 [3]: > 100 µM

O=C(c1cc(Cc2n[nH]c(=O)c3ccccc23)ccc1F)N1CCC2(CCCCC2)CC1 [Compound 17a, 4-(4-Fluoro-3-(3-azaspiro[5.5]undecane-3-carbonyl)benzyl)phthalazin-1(2H)-one]
EC50 [1]: > 100 µM

O=C(c1cc(Cc2n[nH]c(=O)c3ccccc23)ccc1F)N1CCC2(CCN(C(=O)C3CC3)CC2)C1 [Compound 16d, 4-(3-(8-(Cyclopropanecarbonyl)-2,8-diazaspiro[4.5]decane-2-carbonyl)-4-fluorobenzyl)phthalazin-1(2H)-one]
EC50 [1]: > 100 µM

O=C(c1cc(Cc2n[nH]c(=O)c3ccccc23)ccc1F)N1CC2(COC2)C1 [Compound 10b, 4-(4-Fluoro-3-(2-oxa-6-azaspiro[3.3]heptane-6-carbonyl)benzyl)phthalazin-1(2H)-one]
EC50 [1]: > 100 µM

O=C(C1CC1)N1CCC2(CC1)CCN2C(=O)c1cc(Cc2n[nH]c(=O)c3ccccc23)ccc1F [Compound 13d, 4-(3-(7-(Cyclopropanecarbonyl)-1,7-diazaspiro[3.5]nonane-1-carbonyl)-4-fluorobenzyl)phthalazin-1(2H)-one]
EC50 [1]: > 100 µM

O=C(c1cc(Cc2n[nH]c(=O)c3ccccc23)ccc1F)N1CCC12CCCCC2 [Compound 13a, 4-(4-Fluoro-3-(1-azaspiro[3.5]nonane-1-carbonyl)benzyl)phthalazin-1(2H)-one]
EC50 [1]: > 100 µM

O=C(C1CC1)N1CC2(CCN2C(=O)c2cc(Cc3n[nH]c(=O)c4ccccc34)ccc2F)C1 [Compound 11d, 4-(3-(6-(Cyclopropanecarbonyl)-1,6-diazaspiro[3.3]heptane-1-carbonyl)-4-fluorobenzyl)phthalazin-1(2H)-one]
EC50 [1]: > 100 µM

O=C(c1cc(Cc2n[nH]c(=O)c3ccccc23)ccc1F)N1CCN(C(=O)C2CC2)CC1 [olaparib, reference compound]
DNA damage (γ-H2AX foci), in words [4]: induced DNA damage in a dose dependent manner

CC(C)(C)OC(=O)N1CCC2(CCN(C(=O)c3cc(Cc4n[nH]c(=O)c5ccccc45)ccc3F)C2)C1 (centres unmarked) [Compound 15b, Tert-butyl 7-(2-fluoro-5-((4-oxo-3,4-dihydrophthalazin-1-yl)methyl)benzoyl)-2,7-diazaspiro[4.4]nonane-2-carboxylate]
inhibition of PARP activity (PAR synthesis), in words [5]: inhibit PARP activity in a manner similar to olaparib
DNA damage (γ-H2AX foci), in words [4]: induced DNA damage at micromolar concentrations; also recorded: induced DNA damage in a dose dependent manner
fold lower PARP-1 affinity compared to methylene congener [6]: ~ 85 fold

O=C(c1cc(Cc2n[nH]c(=O)c3ccccc23)ccc1F)N1CC2(CCNCC2)C1 [Compound 12c, 4-(4-Fluoro-3-(2,7-diazaspiro[3.5]nonane-2-carbonyl)benzyl)phthalazin-1(2H)-one]
EC50 [1]: > 100 µM
EC50 [3]: > 100 µM

O=C(c1cc(Cc2n[nH]c(=O)c3ccccc23)ccc1F)N1CC2(CCCCC2)C1 [Compound 12a, 4-(4-Fluoro-3-(2-azaspiro[3.5]nonane-2-carbonyl)benzyl)phthalazin-1(2H)-one]
cytotoxicity / anti-proliferative activity (in words) [2]: poor cytotoxic properties

CC(C)(C)OC(=O)N1CCC2(CC1)CCN2C(=O)c1cc(Cc2n[nH]c(=O)c3ccccc23)ccc1F [Compound 13b, Tert-butyl 1-(2-fluoro-5-((4-oxo-3,4-dihydrophthalazin-1-yl)methyl)benzoyl)-1,7-diazaspiro[3.5]nonane-7-carboxylate]
EC50 [1]: > 100 µM

O=C(c1cc(Cc2n[nH]c(=O)c3ccccc23)ccc1F)N1CC2(CCN(C(=O)C3CC3)CC2)C1 [Compound 12d, 4-(3-(7-(Cyclopropanecarbonyl)-2,7-diazaspiro[3.5]nonane-2-carbonyl)-4-fluorobenzyl)phthalazin-1(2H)-one]
EC50 [1]: > 100 µM

O=C(c1cc(Cc2n[nH]c(=O)c3ccccc23)ccc1F)N1CCC2(CC1)CCN(C(=O)C1CC1)CC2 [Compound 17d, 4-(3-(9-(Cyclopropanecarbonyl)-3,9-diazaspiro[5.5]undecane-3-carbonyl)-4-fluorobenzyl)phthalazin-1(2H)-one]
cytotoxicity / anti-proliferative activity (in words) [2]: poor cytotoxic properties

CC(C)(C)OC(=O)N1CC2(C1)CN(C(=O)c1cc(Cc3n[nH]c(=O)c4ccccc34)ccc1F)C2 [Compound 10c, Tert-butyl 6-(2-fluoro-5-((4-oxo-3,4-dihydrophthalazin-1-yl)methyl)benzoyl)-2,6-diazaspiro[3.3]heptane-2-carboxylate]
EC50 [1]: > 100 µM
fold lower PARP-1 affinity compared to methylene congener [6]: ~ 16 fold

O=C(c1cc(Cc2n[nH]c(=O)c3ccccc23)ccc1F)N1CC2(CNC2)C1 [Compound 10d, 4-(4-Fluoro-3-(2,6-diazaspiro[3.3]heptane-2-carbonyl)benzyl)phthalazin-1(2H)-one]
EC50 [7]: > 100 µM
cell death, in words [1]: no cell death was observed
EC50 [1]: > 100 µM
cell death, in words [3]: no cell death was observed
EC50 [3]: > 100 µM

O=C(c1cc(Cc2n[nH]c(=O)c3ccccc23)ccc1F)N1CCC2(CCNCC2)C1 [Compound 16c, 4-(4-Fluoro-3-(2,8-diazaspiro[4.5]decane-2-carbonyl)benzyl)phthalazin-1(2H)-one]
EC50 [7]: > 100 µM
EC50 [1]: > 100 µM
EC50 [3]: > 100 µM

O=C(c1cc(Cc2n[nH]c(=O)c3ccccc23)ccc1F)N1CCC2(CCNC2)C1 (centres unmarked) [Compound 15c, 4-(4-Fluoro-3-(2,7-diazaspiro[4.4]nonane-2-carbonyl)benzyl)phthalazin-1(2H)-one]
EC50 [1]: > 100 µM
EC50 [3]: > 100 µM

O=C(c1cc(Cc2n[nH]c(=O)c3ccccc23)ccc1F)N1CCC12CNC2 [Compound 11c, 4-(4-Fluoro-3-(1,6-diazaspiro[3.3]heptane-1-carbonyl)benzyl)phthalazin-1(2H)-one]
EC50 [7]: > 100 µM
EC50 [1]: > 100 µM
EC50 [3]: > 100 µM

O=C(c1cc(Cc2n[nH]c(=O)c3ccccc23)ccc1F)N1CCC12CCNCC2 [Compound 13c, 4-(4-Fluoro-3-(1,7-diazaspiro[3.5]nonane-1-carbonyl)benzyl)phthalazin-1(2H)-one]
EC50 [1]: > 100 µM
EC50 [3]: > 100 µM

O=C(c1cc(Cc2n[nH]c(=O)c3ccccc23)ccc1F)N1CC2(C1)CN(C(=O)C1CC1)C2 [Compound 10e, 4-(3-(6-(Cyclopropanecarbonyl)-2,6-diazaspiro[3.3]heptane-2-carbonyl)-4-fluorobenzyl)phthalazin-1(2H)-one]
off-target enzymatic inhibition of other PARPs, in words [8]: minimal off-target activity; also recorded: less enzymatic inhibition with most other PARPs
cytotoxic concentration (EC50) relative to olaparib [9]: approximately 7 fold
inhibition of PARP activity (PAR synthesis), in words [5]: inhibit PARP activity in a manner similar to olaparib
DNA damage (γ-H2AX foci), in words [4]: did not induce DNA damage at similar drug concentrations as olaparib; also recorded: unable to induce DNA damage at concentrations as high as 10 μM
cell death, in words [1]: no measurable cell death
EC50 [1]: > 100 µM
cell death, in words [3]: no measurable cell death
EC50 [3]: > 100 µM

CC(C)(C)OC(=O)N1CC2(CCN2C(=O)c2cc(Cc3n[nH]c(=O)c4ccccc34)ccc2F)C1 [Compound 11b, Tert-butyl 1-(2-fluoro-5-((4-oxo-3,4-dihydrophthalazin-1-yl)methyl)benzoyl)-1,6-diazaspiro[3.3]heptane-6-carboxylate]
EC50 [1]: > 100 µM
